Assay results taken from PMC9959518, “Influence of the Drug Position on Bioactivity in Angiopep-2—Daunomycin Conjugates” (International Journal of Molecular Sciences, 2023).

System: U87 human glioblastoma cells
Type: cell-based
Conditions: MTT test; for IC50: 0.05–50 µM, treated 24 h (method: overnight), washed, further 48 h (method: 72 h) at 37 °C, two independent experiments with four parallel measurements
Procedure: The in vitro cytostatic effect of the synthesized peptide (1) and daunomycin-peptide conjugates (2–8) was investigated on U87 human glioblastoma cells. The cells were treated with the peptide and conjugates at different concentrations (0.05–50 μM) for 24 h, and after a washing step, the cells were incubated for another […] at 37 °C. The cytostatic effect of the compounds was determined using the MTT test.
U87 human glioblastoma cell line was cultured in DMEM supplemented with 10% FBS, 2 mM L-glutamine, penicillin–streptomycin antibiotic mixture (50 IU/mL and 50 μg/mL, respectively), 1 mM sodium pyruvate, and 1% non-essential amino acid mixture. The cell culture was maintained at 37 °C in a humidified atmosphere with 5% CO2. The U87 cell line was a generous gift of Dr. József Tóvári (Department of Experimental Pharmacology, National Institute of Oncology, Budapest, Hungary).
For determining the cytostatic effect of the conjugates, U87 cells were grown to confluency and then divided into 96-well tissue culture plates with an initial cell number of 5.0 × 10^3 cells/well. After 24 h incubation at 37 °C, the cells were treated with the compounds overnight in the concentration range of 0.05–50 μM in 200 μL final volume containing 1.0 v/v% DMSO, whereas control cells were treated only with serum-free medium or with 1.0 v/v% DMSO at the same conditions. After the incubation, cells were washed twice with serum-free medium, then the cells were cultured for an additional 72 h in 10% serum-containing medium at 37 °C. Following that, MTT solution (at c = 0.37 mg/mL final concentration) was added to each well. The respiratory chain [32] and other electron transport systems reduced MTT and thereby formed non-water-soluble violet formazan crystals within the cells. The amount of these crystals can be determined by spectrophotometry and serves as an estimate for the number of mitochondria in addition to the number of living cells in the well [35]. After 3 h of incubation with MTT, the cells were centrifuged for 5 min at 2000 rpm and the supernatant was removed. The obtained formazan crystals were dissolved in DMSO (100 µL), and the optical density (OD) of the samples was measured at λ = 540 nm and 620 nm, respectively, using ELISA Reader (iEMS Reader, Labsystems, Finland). The OD620 values were subtracted from the OD540 values. The percent of cytostasis was calculated with the following equation:(1) Cytostatic effect (%)=1−ODtreated/ODcontrol×100 where the ODtreated and ODcontrol values correspond to the optical densities of the treated and the control wells, respectively. In each case, two independent experiments were carried out with four parallel measurements. Cytostasis was plotted as a function of concentration, and the half-maximal inhibitory concentration was calculated based on a sigmoid curve fitted on the data points using Microcal™ Origin 2018 software. IC50 represents the concentration of a compound that is required for 50% inhibition, expressed in micromolar units.

Row | Compound | IC50 | in vitro cytostatic effect (in words) (up to 50 µM)
1 | C[C@@H](O)[C@H](N)C(=O)N[C@@H](Cc1ccccc1)C(=O)N[C@@H](Cc1ccccc1)C(=O)N[C@@H](Cc1ccc(O)cc1)C(=O)NCC(=O)NCC(=O)N[C@@H](CO)C(=O)N[C@@H](CCCNC(=N)N)C(=O)NCC(=O)N[C@@H](CCCCN)C(=O)N[C@@H](CCCNC(=N)N)C(=O)N[C@@H](CC(N)=O)C(=O)N[C@@H](CC(N)=O)C(=O)N[C@@H](Cc1ccccc1)C(=O)N[C@@H](CCCCN)C(=O)N[C@H](C(=O)N[C@@H](CCC(=O)O)C(=O)N[C@@H](CCC(=O)O)C(=O)N[C@@H](Cc1ccc(O)cc1)C(=O)O)[C@@H](C)O [compound 1, H-TFFYGGSRGKRNNFKTEEY-OH, reference compound] | > 50 µM | did not show any effect
2 | COc1cccc2c1C(=O)c1c(O)c3c(c(O)c1C2=O)C[C@@](O)(C(C)=NOCC(=O)NCCCC[C@H](NC(=O)[C@H](Cc1ccccc1)NC(=O)[C@H](CC(N)=O)NC(=O)[C@H](CC(N)=O)NC(=O)[C@H](CCCNC(=N)N)NC(=O)[C@H](CCCCN)NC(=O)CNC(=O)[C@H](CCCNC(=N)N)NC(=O)[C@H](CO)NC(=O)CNC(=O)CNC(=O)[C@H](Cc1ccc(O)cc1)NC(=O)[C@H](Cc1ccccc1)NC(=O)[C@H](Cc1ccccc1)NC(=O)[C@@H](N)[C@@H](C)O)C(=O)N[C@H](C(=O)N[C@@H](CCC(=O)O)C(=O)N[C@@H](CCC(=O)O)C(=O)N[C@@H](Cc1ccc(O)cc1)C(=O)O)[C@@H](C)O)C[C@@H]3O[C@H]1C[C@H](N)[C@H](O)[C@H](C)O1 [compound 2, H-TFFYGGSRGKRNNFK(Dau=Aoa)TEEY-OH] | 30.2 ± 6.4 µM | –
3 | COc1cccc2c1C(=O)c1c(O)c3c(c(O)c1C2=O)C[C@@](O)(C(C)=NOCC(=O)NCCCC[C@H](NC(=O)[C@H](Cc1ccccc1)NC(=O)[C@H](CC(N)=O)NC(=O)[C@H](CC(N)=O)NC(=O)[C@H](CCCNC(=N)N)NC(=O)[C@H](CCCCN)NC(=O)CNC(=O)[C@H](CCCNC(=N)N)NC(=O)[C@H](CO)NC(=O)CNC(=O)CNC(=O)[C@H](Cc1ccc(O)cc1)NC(=O)[C@H](Cc1ccccc1)NC(=O)[C@H](Cc1ccccc1)NC(=O)[C@@H](NC(=O)CON=C(C)[C@]1(O)Cc2c(O)c4c(c(O)c2[C@@H](O[C@H]2C[C@H](N)[C@H](O)[C@H](C)O2)C1)C(=O)c1c(OC)cccc1C4=O)[C@@H](C)O)C(=O)N[C@H](C(=O)N[C@@H](CCC(=O)O)C(=O)N[C@@H](CCC(=O)O)C(=O)N[C@@H](Cc1ccc(O)cc1)C(=O)O)[C@@H](C)O)C[C@@H]3O[C@H]1C[C@H](N)[C@H](O)[C@H](C)O1 [compound 5, Dau=Aoa-TFFYGGSRGKRNNFK(Dau=Aoa)TEEY-OH] | 32.3 ± 8.1 µM | –
4 | COc1cccc2c1C(=O)c1c(O)c3c(c(O)c1C2=O)C[C@@](O)(C(C)=NOCC(=O)NCCCC[C@H](NC(=O)CNC(=O)[C@H](CCCNC(=N)N)NC(=O)[C@H](CO)NC(=O)CNC(=O)CNC(=O)[C@H](Cc1ccc(O)cc1)NC(=O)[C@H](Cc1ccccc1)NC(=O)[C@H](Cc1ccccc1)NC(=O)[C@@H](N)[C@@H](C)O)C(=O)N[C@@H](CCCNC(=N)N)C(=O)N[C@@H](CC(N)=O)C(=O)N[C@@H](CC(N)=O)C(=O)N[C@@H](Cc1ccccc1)C(=O)N[C@@H](CCCCNC(=O)CON=C(C)[C@]1(O)Cc2c(O)c4c(c(O)c2[C@@H](O[C@H]2C[C@H](N)[C@H](O)[C@H](C)O2)C1)C(=O)c1c(OC)cccc1C4=O)C(=O)N[C@H](C(=O)N[C@@H](CCC(=O)O)C(=O)N[C@@H](CCC(=O)O)C(=O)N[C@@H](Cc1ccc(O)cc1)C(=O)O)[C@@H](C)O)C[C@@H]3O[C@H]1C[C@H](N)[C@H](O)[C@H](C)O1 [compound 6, H-TFFYGGSRGK(Dau=Aoa)RNNFK(Dau=Aoa)TEEY-OH] | 21.6 ± 5.4 µM | –
